12 compounds from paper PMC5550455, “Unusual Inner-Salt Guaiazulene Alkaloids and bis-Sesquiterpene from the South China Sea Gorgonian Muriceides collaris” (Scientific Reports, 2017) can be followed below.

Experiment [1] deals with A549 human tumor cell line. The experiment in a line: Cytotoxicity assay, MTT method, A549. The experiment is classed as cell-based. Here is the method:
The cytotoxicity of Fr. […] The IC50 value of each compound was calculated by Reed and Muench’s method. Experiments were repeated three times and carried out in triplicate.

In experiment [2] the test system is HeLa human tumor cell line. The experiment in a line: Cytotoxicity assay, MTT method, HeLa. The experiment is classed as cell-based. The source says:
(§1) A frozen specimen of Muriceides collaris (9.6 kg, wet weight) was homogenized and then extracted with MeOH four times (each time, 3 days) at room temperature. The combined solutions were concentrated in vacuo and the concentrated extract was subsequently desalted by redissolving with MeOH to yield a residue (221 g). The crude extract was subjected to silica gel vacuum liquid chromatography (VLC), eluting with a gradient of petroleum/acetone (from 10:0 to 1:1, v:v) and subsequently CH2Cl2/MeOH (from 20:1 to 0:1, v-v) to obtain nine fractions (Fr.A−Fr.I). Each fraction was detected by TLC, and was tested for their cytotoxicity against HeLa and K562 cell lines at 50 μg/mL. […] Fr.G (3.5 g) was then subjected to a Sephadex LH-20 column eluted with CH2Cl2/MeOH (1:1, v/v) to give […]. Fr.G-3 (1.018 g) was separated by silica gel CC (CH2Cl2/MeOH, 30:1, v-v) to give six subfractions (Fr.G-3-1 to Fr.G-3-6). Fr.G-3-2 (223 mg) was purified by ODS CC with a gradient of MeOH/H2O (from 20% to 100%) to yield four subfractions (Fr.G-3-2-1 to Fr.G-3-2-4). Fr.G-3-2-3 (25.0 mg) was purified by semi-preparative HPLC (ODS, 5 μm, 250 × 10 mm; MeOH/H2O, 65:35, v/v; 1.5 mL/min) to afford muriceidines A (1, 10.3 mg) and B (2, 9.6 mg). Fr.G-3-4 (137 mg) was purified by ODS column chromatograph with a gradient of MeOH/H2O (from 20% to 100%) to yield four subfractions (Fr.G-3-4-1 to Fr.G-3-4-4). And Fr.G-3-4-1 (9.6 mg) was further purified by semi-preparative HPLC (ODS, 5 μm, 250 × 10 mm; MeOH/H2O, 60:40, v/v; 1.5 mL/min) to afford muriceidine C (3, 4.6 mg). Similarly, muriceidone A (4, 3.7 mg) and the co-isolated known 3-formylguaiazulene (6, 9.1 mg) was obtained in subfraction Fr. […] And GA (5, 1.5 mg) was obtained in subfraction Fr. […] Chiral seperations of partial 2 [Daicel Chiralpack IB, 5 μm, 4.6 mm × 250 mm], 3 [Daicel Chiralpack IC, 5 μm, 4.6 mm × 250 mm; MeOH, 1.5 mL/min], and 4 [Daicel Chiralpack IC, 5 μm, 4.6 mm × 250 mm; Hexane/isopropyl alcohol 97:3, 1.5 mL/min] were performed on Agilent analytical HPLC system to afford optically pure (+)-2 (0.9 mg), (−)-2 (1.2 mg), (+)-3 (2.5 mg), (−)-3 (2.2 mg), (+)-4 (1.5 mg), and (−)-4 (1.6 mg) (Fig. S1).
(§2) The cytotoxicity of Fr. A–I against K562 and HeLa cell lines and compounds 1–4 against K562, HeLa, A-549, and HL-60 human tumor cell lines were determined by MTT method with Adriamycin as a positive control. The IC50 value of each compound was calculated by Reed and Muench’s method. Experiments were repeated three times and carried out in triplicate.

The subject of experiment [3] is K562 human tumor cell line. The experiment in a line: Cytotoxicity assay, MTT method, K562. It is filed as cell-based.
Source text: as §1, §2
(Formazan colour is commonly taken as a measure of viable cells.)

Experiment [4] deals with HL-60 human tumor cell line. Description: Cytotoxicity assay, MTT method, HL-60. The conditions noted are these: HL-60 cell line. It is filed as cell-based. Here is the method:
as §2

For experiment [5], the system named is larvae of the barnacle Balanus albicostatus. The experiment in a line: Antifouling assay, barnacle larval settlement and mortality. It is filed as in vivo, Balanus albicostatus Pilsbry. The settings on record: Fistulobalanus albicostatus, read-out: EC50 antifouling activity (50% of larval population inhibited to settle). Here is the method:
The antifouling activity of compounds 1–6 against larval of the barnacle Balanus albicostatus Pilsbry were determined according to the literature. EC50 was calculated as the concentration where 50% of the larval population was inhibited to settle as compared to the control while LC50 was calculated as the concentration where 50% of the larval population was dead. Experiments were repeated three times and carried out in triplicate.

[6] abbreviates: Homo sapiens, HL-60, MTT method.

Molecules are shown by their SMILES. pIC50: −log10 of the molar value. Values after ≈ are worked out from the molar mass of the structure shown. Read-outs that look alike come from different tables or passages of the source.

For the compound `Cc1cc(/C=C2/C(C(=O)O)=NCCC2O)c2c(C)ccc(C(C)C)cc1-2` (racemic) [compound 2, (±)-Muriceidine B], the pIC50 in experiment [1] (Homo sapiens) is less than 4.00; in experiment [2] (Homo sapiens, HeLa), less than 4.00; in experiment [3] (Homo sapiens, K562, MTT method) it was less than 4.00; in experiment [4] (setting [6]) it was less than 4.00.
Take `COC1CCN=C(C(=O)O)/C1=C/c1cc(C)c2cc(C(C)C)ccc(C)c1-2` (racemic) [compound 3, (±)-Muriceidine C]: the pIC50 in experiment [1] (Homo sapiens) is 4.08; in experiment [2] (Homo sapiens, HeLa) it was less than 4.00; in experiment [3] (Homo sapiens, K562, MTT method) it was 5.43; in experiment [3] (MTT method) it was 5.43; in experiment [4] (setting [6]) it was 5.66; in experiment [4] (MTT method) it was 5.66.
As for `CC1=CC(=O)C2(C3C(=O)c4c(cc(C(C)C)c(C=O)c4C)C3(C)O)C(C)=CC=C(C(C)C)C=C12` (racemic) [compound 4, (±)-Muriceidone A], the pIC50 in experiment [1] (Homo sapiens) was less than 4.00; in experiment [2], less than 4.00; in experiment [3] (Homo sapiens, K562, MTT method) it was less than 4.00; in experiment [4] (setting [6]) it was less than 4.00.
For `CC1=CC(=O)C2(C3C(=O)c4c(cc(C(C)C)c(C=O)c4C)C3(C)O)C(C)=CC=C(C(C)C)C=C12` (single isomer, unassigned; (+)) [(+)-4], the pIC50 in experiment [1] is less than 4.00; in experiment [2], 4.37; in experiment [3] (MTT method), 4.05; in experiment [4] (MTT method), 4.27.
On to `CC1=CC(=O)C2(C3C(=O)c4c(cc(C(C)C)c(C=O)c4C)C3(C)O)C(C)=CC=C(C(C)C)C=C12` (single isomer, unassigned; (-)) [(−)-4], for which the pIC50 in experiment [1] was less than 4.00; in experiment [2], 4.40; in experiment [3] (MTT method), less than 4.00; in experiment [4] (MTT method), less than 4.00.
On to `Cc1cc(/C=C2/C(C(=O)O)=NCC[C@@H]2O)c2c(C)ccc(C(C)C)cc1-2` [(+)-2], for which the pIC50 in experiment [1] (Homo sapiens) was less than 4.00; in experiment [2] (Homo sapiens, HeLa) it was less than 4.00; in experiment [3] (Homo sapiens, K562, MTT method) it was less than 4.00; in experiment [4] (setting [6]), less than 4.00.
For `CO[C@H]1CCN=C(C(=O)O)/C1=C/c1cc(C)c2cc(C(C)C)ccc(C)c1-2` [(+)-3], the pIC50 was less than 4.00 in experiment [1] (Homo sapiens); 4.27 in experiment [2] (Homo sapiens, HeLa); 4.33 in experiment [3] (Homo sapiens, K562, MTT method); 4.64 in experiment [4] (setting [6]).
For the compound `Cc1cc(/C=C2/C(C(=O)O)=NCC[C@H]2O)c2c(C)ccc(C(C)C)cc1-2` [(−)-2], the pIC50 in experiment [1] (Homo sapiens) was less than 4.00; in experiment [2] (Homo sapiens, HeLa), less than 4.00; in experiment [3] (Homo sapiens, K562, MTT method), less than 4.00; in experiment [4] (setting [6]), less than 4.00.
For the compound `CO[C@@H]1CCN=C(C(=O)O)/C1=C/c1cc(C)c2cc(C(C)C)ccc(C)c1-2` [(−)-3], the pIC50 is less than 4.00 in experiment [1] (Homo sapiens); 4.27 in experiment [2] (Homo sapiens, HeLa); 4.27 in experiment [3] (Homo sapiens, K562, MTT method); 5.29 in experiment [4] (setting [6]); 5.29 in experiment [4] (MTT method).
For the compound `COc1cccc2c1C(=O)c1c(O)c3c(c(O)c1C2=O)C[C@@](O)(C(=O)CO)C[C@@H]3O[C@H]1C[C@H](N)[C@H](O)[C@H](C)O1` [Adramycin, Adriamycin, reference compound], the pIC50 in experiment [1] (Homo sapiens) was 6.22; in experiment [2] (Homo sapiens, HeLa), 6.22; in experiment [3] (Homo sapiens, K562, MTT method), 6.70; in experiment [4] (setting [6]), 6.52.
As to `Cc1cc(/C=C2\CCCN=C2C(=O)O)c2c(C)ccc(C(C)C)cc1-2` [compound 1, Muriceidine A], the pIC50 in experiment [1] (Homo sapiens) is less than 4.00; in experiment [2] (Homo sapiens, HeLa) it was 4.75; in experiment [3] (Homo sapiens, K562, MTT method), 5.08; in experiment [3] (MTT method), 5.08; in experiment [4] (setting [6]), less than 4.00. Further, in experiment [5], the EC50 was determined as 11.9 µg/mL (≈ 35.5 µM).
On to `Cc1cc(C=O)c2c(C)ccc(C(C)C)cc1-2` [compound 6, 3-formyl guaiazulene], for which the EC50 in experiment [5] is 2.39 µg/mL (≈ 10.6 µM).

The term pIC50 denotes the IC50 on a negative log10 scale, so that one unit is a factor of ten. Read a high pIC50 as a small IC50. The EC50 is the midpoint of the concentration-response curve.
